Here are results for six compounds from US4100278A, “Novel benzazepines” (Roussel Uclaf, priority 1976, dated 1978).

Data set [1] relates to effects of 5-hydroxytryptophane (5 HTP). Nature of the data set: Potentialization of effects of 5 HTP in mice (trembling). The data set is classed as in vivo. Conditions: Mus musculus, test product i.p. one hour before 200 mg/kg 5 HTP i.p., observed every 15 minutes for an hour, read-out: MAD (minimum active dose). An excerpt:
The administration of 5-hydroxytryptophane (5 HTP) to mice pretreated with an antidepressive agent induces in the animals a particular behavoir, namely the appearance of trembling.

In a further data set the test system is L-dopa effects. Nature of the data set: Potentialization of L-dopa effects in mice pretreated with iproniazide. The data set is classed as in vivo. The settings on record: Mus musculus, ip; male mice, test product i.p. one hour before L-dopa 100 mg/kg i.p.; iproniazide 75 mg/kg i.p. 18 hours before; read-out: ED50 (dose at which 50% of the L-dopa effects were potentialized). The method, then:
The administration of L-dopa to mice pretreated with iproniazide 18 hours earlier produces a certain number of symptoms: muscular hypertonicity, hyperactivity, agitation, crying, aggressiveness, salivation and exophthalmia. The intensity of these effects is potentialized by administration of an antidepressive agent one hour before the L-dopa administration.
Male mice received intraperitoneally 75 mg/kg of iproniazide 18 hours before the start of the test and the test products in aqueous solution were administered intraperitoneally in increasing doses. The L-dopa was intraperitoneally administered at a dose of 100 mg/kg one hour later and the symptoms observed 15 and 30 minutes after the L-dopa administration were evaluated on a scale of 0 to 3 for each mouse and the values were totaled for each dose.

The subject of data set [2] is effects of nialamide (inhibitor of monoamine oxidase) - hyperactive motility. Nature of the data set: Potentialization of effects of IMAO (nialamide), actimetric counting in mice. The data set is classed as in vivo. Also noted: key to the marks not given beside the values. Conditions: 30 minutes after nialamide 100 mg/kg i.p., counts totaled every 30 minutes for 6 hours.

Data set [3] is described as follows: Acute toxicity (LD50) in mice. Conditions: mouse, in vivo, ip, intraperitoneal, mortality at 48 hours. The protocol: The LD50, dose which killed 50% of mice was determined by intraperitoneal administration of the test compounds and the mortality rate was determined of 48 hours.
Data set [4] deals with uptake of serotonine (5 HT), purified synaptosoma from whole brain. In words: Inhibition of uptake of serotonine in vitro (Test No. 1). The data set is classed as biochemical, female rats. The settings on record: rat brain synaptosoma, 37° C, 5 minutes, C^14 - 5 HT 10^-7 M; read-out: 50% inhibiting concentration (IC 50) of uptake of C^14 - 5 HT (Test No. 1). The protocol:
The inhibition of uptake of serotonine (5 HT) was measured with purified synaptosoma prepared by starting from the whole brain of female rats 19-21 days old by the technique of Kannengiesser et al [Biochemical Pharmacology, Vol. 22 (1973), p. 73]. The test products at different concentrations were incubated with the preparation at 37° C for 5 minutes in the presence of C^14 - 5 HT at a concentration of 10^-7 M. The 50% inhibiting concentration (IC 50) of the products was graphically determined as the dose that inhibited by 50% the uptake of C^14 - 5 HT in the synaptosma.

Data set [5] relates to uptake of serotonine (C^14 - 5 HT), brain synaptosoma. Nature of the data set: Inhibition of uptake of serotonine in vivo (Test No. 2). Conditions: Rattus norvegicus, ip; female rats 19 to 21 days old, 10 mg/kg i.p., brain removed after 30 minutes; read-out: % inhibition of uptake of C^14 - 5 HT with respect to the controls (Test No. 2). The method, then:
The test products were administered intraperitoneally to groups of female rats 19 to 21 days old at doses from 5 to 20 mg/kg. After 30 minutes, the brain was removed and the synaptosoma was prepared and was placed in an incubator in the presence of C^14 - 5 HT as indicated previously. […] The activity is expressed in % inhibition with respect to the controls at a dose of 10 mg/kg and the results are reported in Table V.

Where a name gives a salt, the structure may show the parent alone.

Broadly, the ED50 is the midpoint of the dose-response relation. As usually defined, the LD50 is the dose at which mortality reaches 50%. With `NCC1CCc2ccccc2NC1.O=C(O)/C=C/C(=O)O` (centres unmarked) [Example 1, 2,3,4,5-tetrahydro-[1H]-1-benzazepine-3-methanamine fumarate], the minimal effective dose in data set [1] was 50 mg/kg. Besides, the ED50 in the data set with L-dopa effects was found to be 10 mg/kg. Also, the “Potentialization of nialamide for the dose” value (from here on “Potentialization of nialamide”) in data set [2] (1 mg/kg i.p.) was “++”. Also, the LD50 at 48 h in data set [3] is 300 mg/kg.
For orientation: inhibition means the relative decrease from the control value, in per cent. For `CNCC1CCc2ccccc2NC1.Cl.Cl` (centres unmarked) [Example 2, N-methyl-2,3,4,5-tetrahydro-[1H]-1-benzazepine-3-methanamine dihydrochloride], in data set [4], the IC50 was 1.3 µM. In addition, in data set [5], the inhibition at 10 mg/kg worked out at 58%. Besides, the minimal effective dose in data set [1] came out at 10 mg/kg. Further, in data set [2] (5 mg/kg i.p.), the “Potentialization of nialamide” value was “+++”. In addition, the LD50 at 48 h in data set [3] was found to be 250 mg/kg.
As to `CNCC1CCc2ccccc2N(C)C1` (centres unmarked) [Example 3, Di-[N, 1-dimethyl-2,3,4,5-tetrahydro-[1H]-1-benzazepine-3-methanamine]-fumarate], in data set [4], the IC50 amounted to 1.3 µM. In addition, the inhibition at 10 mg/kg in data set [5] came to 40%. In addition, the minimal effective dose in data set [1] came out at 50 mg/kg. For the same compound, the median effective dose (ED50) in the data set on L-dopa effects amounted to 20 mg/kg. Besides, the “Potentialization of nialamide” value in data set [2] (5 mg/kg i.p.) was “++”. Further, the LD50 at 48 h in data set [3] was 250 mg/kg.
As to `NC1CCc2ccccc2NC1` (centres unmarked) [Example 4, di-[2,3,4,5-tetrahydro-[1H]-1-benzazepine-3-amine]-fumarate], in data set [1], the minimal effective dose came out at 50 mg/kg. Also, the ED50 in the data set with L-dopa effects was determined as 50 mg/kg. In data set [2] (20 mg/kg i.p.), the “Potentialization of nialamide” value is “++”. The same compound came in with an LD50 at 48 h in data set [3] of 300 mg/kg.
In the case of `CNC1CCc2ccccc2N(C)C1` (centres unmarked) [Example 5, di-[N,1-dimethyl-2,3,4,5-tetrahydro-[1H]-1-benzazepine-3-amine]-fumarate], the minimal effective dose in data set [1] is 50 mg/kg. This compound returned an LD50 at 48 h in data set [3] of 150 mg/kg.
For `CNC1CCc2ccccc2NC1` (centres unmarked) [Example 6, di-[N-methyl-2,3,4,5-tetrahydro-[1H]-1-benzazepine-3-amine] fumarate], the minimal effective dose in data set [1] was found to be 20 mg/kg. The same compound displayed an LD50 at 48 h in data set [3] of 250 mg/kg.
